Values of other authors in patent US20080286208A1, “Eye treatment” (priority 2001, published 2008).
Entries after “also recorded” stand apart in the source; their conditions may differ. Read-outs that look alike come from different tables or passages of the source.

Test system: eye
Conditions: for Stinging when applied to the eye: applied to the eye in suitable dosage

| SMILES | Stinging when applied to the eye | Stinging when applied to the eye (listed as Rose bengal) | Toxicity to the eye (post instillation) |
| --- | --- | --- | --- |
| CN(C)c1ccc(C(=C2C=CC(=[N+](C)C)C=C2)c2c(O)c(S(=O)(=O)[O-])cc3cc(S(=O)(=O)[O-])ccc23)cc1.[Na+] [Lissamine green] | without the disadvantages of toxicity and sting potential; also recorded: does not induce stinging; also recorded: does not significantly sting | – | – |
| O=C([O-])c1c(Cl)c(Cl)c(Cl)c(Cl)c1-c1c2cc(I)c(=O)c(I)c-2oc2c(I)c([O-])c(I)cc12.[Na+].[Na+] [rose bengal] | may result in stinging and pain to an extent that can be disabling for hours post instillation; also recorded: may produce dose related stinging; also recorded: has been found to sting | has a sting potential | known to be toxic |
